Reference: patent US10342796B2, “Acrylanilide derivative, preparation method, and applications thereof in pharmacy” (Ancureall Pharmaceutical (Shanghai) Co., Ltd., priority 2015, dated 2019)
Read-outs that look alike come from different tables or passages of the source.

Legend:
Assay in all cases: Growth inhibition GI50 in vitro (CCK8/MTT, 72 h)
H1975 (EGFR L858R/T790M) = format: cell-based, human; settings: Homo sapiens, NCI-H1975
HCC827 (EGFR dE746-A750) = format: cell-based, human; settings: Homo sapiens
PC-9 (EGFR dE746-A750) = format: cell-based, human; settings: Homo sapiens
[1] = test system: PC-9ER (EGFR delE746-A750/T790M); format: cell-based, human; settings: Homo sapiens, PC-9/ER; EGFR mutant cell line; range of GI50; read-out: GI50 PC9ER
N87 (HER2 Amp) = format: cell-based, human; settings: Homo sapiens
AU565 (Her2 amp) = format: cell-based, human; settings: Homo sapiens
SK-BR-3 (Her2 amp) = format: cell-based, human; settings: Homo sapiens
Calu-3 (Her2 amp) = format: cell-based; settings: Homo sapiens; Calu-3, EGFR wt, Her2 amp; read-out: GI50
H292 (EGFR WT) = format: cell-based; settings: Homo sapiens, NCI-H292; H292, EGFR wt; read-out: GI50
[2] = test system: A431 (EGFR WT, amplification and high expression); format: cell-based, human; settings: Homo sapiens, A-431
A549 (EGFR WT) = format: cell-based, human; settings: Homo sapiens
[3] = test system: H1299 (EGFR wt, Nras Q61K); format: cell-based, human; settings: Homo sapiens, NCI-H1299
[4] = test system: H460 (EGFR wt, Kras G61H); format: cell-based, human; settings: Homo sapiens, NCI-H460

**Q.** `C=CC(=O)Nc1cc(Nc2cc(Nc3ccc(F)c(Cl)c3)ncn2)c(OC)cc1N1CCN(C2CCN(C)CC2)CC1` [Compound 147, N-(5-(6-(3-chloro-4-fluoro-phenylamino)-pyrimidin-4-ylamino)-4-methoxyl-2-(4-(1-methylpiperidin-4-yl)-piperazin-1-yl)-phenyl)-acrylamide] was tested. Which GI50 (H1975 (EGFR L858R/T790M); EGFR mutant cell line, range of GI50, read-out: GI50 H1975) did it give?
**A.** < 10 nM

**Q.** And the GI50 (H1975 (EGFR L858R/T790M); H1975, EGFR L858R/T790M, read-out: GI50)?
**A.** 4.6 nM

**Q.** And the GI50 (HCC827 (EGFR dE746-A750); HCC827, EGFR mutant cell line, range of GI50, read-out: GI50 HCC827)?
**A.** < 10 nM

**Q.** And the GI50 (HCC827 (EGFR dE746-A750); HCC827, EGFR dE746-A750, read-out: GI50)?
**A.** 4.7 nM

**Q.** And the GI50 (PC-9 (EGFR dE746-A750); EGFR mutant cell line, range of GI50, read-out: GI50 PC-9)?
**A.** < 10 nM

**Q.** What about the GI50 (PC-9 (EGFR dE746-A750); PC-9, EGFR dE746-A750, read-out: GI50) of the same compound?
**A.** 0.58 nM

**Q.** And the GI50 [1]?
**A.** < 10 nM

**Q.** And the GI50 (N87 (HER2 Amp); HER2 positive cell line, range of GI50, read-out: GI50 N87)?
**A.** < 10 nM

**Q.** And the GI50 (N87 (HER2 Amp); N87, EGFR wt, Her2 amp, read-out: GI50)?
**A.** 4.8 nM

**Q.** What about the GI50 (AU565 (Her2 amp); AU565, HER2 positive cell line, range of GI50, read-out: GI50 AU-565) of the same compound?
**A.** < 10 nM

**Q.** And the GI50 (AU565 (Her2 amp); AU565, EGFR wt, Her2 amp, read-out: GI50)?
**A.** 2.6 nM

**Q.** And the GI50 (SK-BR-3 (Her2 amp); SK-BR-3, HER2 positive cell line, range of GI50, read-out: GI50 SK-BR-3)?
**A.** < 10 nM

**Q.** And the GI50 (SK-BR-3 (Her2 amp); SK-BR-3, EGFR wt, Her2 amp, read-out: GI50)?
**A.** 5.6 nM

**Q.** What about the GI50 (Calu-3 (Her2 amp)) of the same compound?
**A.** 12.5 nM

**Q.** What about the GI50 (H292 (EGFR WT)) of the same compound?
**A.** > 1000 nM

**Q.** And the GI50 ([2]; A431, EGFR wt, read-out: GI50)?
**A.** 37.5 nM

**Q.** What about the GI50 ([2]; EGFR wild type cell line, range of GI50, read-out: GI50 A431) of the same compound?
**A.** 10 to 100 nM

**Q.** And the GI50 (A549 (EGFR WT); A549, EGFR wild type cell line, range of GI50, read-out: GI50 A549)?
**A.** > 1000 nM

**Q.** And the GI50 (A549 (EGFR WT); A549, EGFR wt, Kras G12S, read-out: GI50)?
**A.** 896 nM

**Q.** What about the GI50 ([3]; EGFR wild type cell line, range of GI50, read-out: GI50 H1299) of the same compound?
**A.** > 1000 nM

**Q.** And the GI50 ([3]; H1299, EGFR wt, Nras Q61K, read-out: GI50)?
**A.** > 1000 nM

**Q.** And the GI50 ([4]; EGFR wild type cell line, range of GI50, read-out: GI50 H460)?
**A.** > 1000 nM

**Q.** And the GI50 ([4]; H460, EGFR wt, Kras G61H, read-out: GI50)?
**A.** > 1000 nM
